How the values were obtained:
[1] = system: primary cultured neural stem cells (NSC); assay: Survival and proliferation of primary cultured neural stem cells (neurospheres) in medium without growth factors; type: cell-based, SD rats
Method: The brains were taken from neonatal 1 day SD rats under a sterile condition, and the hippocampi were isolated and placed in culture dish containing a small amount of high glucose DMEM/F12; the meninges and blood vessels were divested, and the tissue was cut into small pieces, added with 5 ml cell culture medium, lightly blown and beaten into cell suspension with flame polished Pasteur sucker, and filtered by 400 screen mesh. The ratio of living cells was counted by trypan-blue staining. After the counting, the cells were placed into a 25 ml culture flask at a density of 2×10^6 cells/ml. Basal culture medium DMEM/F12 (1:1), cofactor B27(2%) and growth factor EGF (20 ng/ml)+bFGF (10 ng)/ml) were needed for conventional culture of NSC, and the cells grew as floating spheres in the culture medium. In order to observe the effect of different concentrations of epimedium flavanoide and its effective ingredient […] on primary cultured NSC, basal culture medium DMEM/F12 (1:1) and B27(2%) were used without growth factor, and epimedium flavanoide or […] final concentration of 10, 50, 100, 200, 400 μg/ml was added respectively. Cultures were maintained at 37° C. in a humidified atmosphere of 95% air/5% CO2. The growth state of the cells was observed under inverted microscope, and the diameter of the neurospheres was measured by micro ruler. The identification of neural stem cells: the neurospheres were taken, the culture medium containing growth factor EGF and bFGF were removed, DMEM/F12 containing 10% FBS was added, and inoculated in 24-well culture plates covered with polylysine. After 16 hours of culture, nestin and doublecortin (DCX) immunocytochemical staining was performed.

[2] = system: neural stem cells; assay: Differentiation of neural stem cells (second generation neurospheres) in medium without FBS; type: cell-based, SD rats
Method: The second generation of neurospheres in culture was taken, and the culture medium containing growth factors in the culture flask was removed. The neurospheres were randomly divided into two groups: (1) fetal bovine serum (FBS) control group: the culture medium was DMEM/F12+1% FBS; (2) epimedium flavanoide treatment group: the culture medium was DMEM/F12 (without FBS) added with epimedium flavanoide at a final concentration of 10, 50, 100, 200 and 400 μg/ml, respectively; (3) […] treatment group: the culture medium was DMEM/F12 (without FBS) added with […] final concentration of 10, 50, 100, 200 and 400 μg/ml, respectively. The three groups of the cells were inoculated in 24-well culture plates covered with polylysine. After 7 days of culture, the morphology of the cells was observed under inverted microscope, and fluorescent immunostaining was performed and photographed.

[3] = without fetal bovine serum, 7 days, vs FBS group, P<0.01 (FIG. 4)
[4] = without fetal bovine serum, 7 days, vs FBS group, P<0.01 (FIG. 5)

`COc1ccc(-c2oc3c(CC=C(C)C)c(OC4OC(CO)C(O)C(O)C4O)cc(O)c3c(=O)c2OC2OC(C)C(O)C(O)C2O)cc1` (centres unmarked) [icarrin, 3-((6-deoxymannopyranosyl)oxo)-7-(pyranoglucosyloxo)-5-hydroxy-2-(4-methoxyphenyl)-8-(3-methyl-2-butenyl)-4H-1-benzopyran-4-one] was tested, and the “growth state of neurospheres” value ([1]; 100 μg/ml, DMEM/F12 without growth factors, 7 days (FIG. 1D)) was “floating neurospheres were observed”, the “growth state and volume of neurospheres” value ([1]; 100 μg/ml, DMEM/F12 without growth factors, 28 days (FIG. 1E)) was “the neurospheres still grew well, and their volume further increased” and the “formation of floating neurospheres” value ([1]; 10-400 μg/ml, DMEM/F12 without growth factors, 7 days) was “many floating neurospheres were formed”. The “growth and volume of neurospheres” value ([1]; 100-200 μg/ml groups, without growth factors, 28 days) was “still grew well, but also became significantly larger in volume”, the diameter of neurospheres ([1]; without serum and growth factors, vs control group at 7, 14, 28 days, P<0.01 (FIG. 2)) was “increased gradually as the incubation time prolonged” and the “morphology of differentiated cells” value ([2]; 50 μg/ml, DMEM/F12 without FBS, 7 days (FIG. 3D)) was “the neurospheres grew well and almost completely adhered, and differentiated well”. The “growth, adhesion and differentiation of neurospheres” value ([2]; 50, 100 μg/ml, without FBS, 7 days) was “the neurospheres grew well, almost completely adhered, and differentiated well”, the “distance of cell migration” value [2, 3] was “farther” and the “length of processes of differentiated cells grown from the neurospheres” value [2, 3] was “longer”. For the same compound, the “length of the axons of neurons” value [2, 4] was “longer” and the “number of NF-200 positive cells (mature neurons)” value [2, 4] was “increased”.

Source: patent US20100317605A1, “THE USE OF EPIMEDIUM FLAVONES AND EFFECTIVE COMPONENTS THEREOF FOR THE PREPARATION OF MEDICAMENTS OF PROMOTING PROLIFERATIONS AND DIFFERENTIATIONS OF NERVE CELLS” (XUANWU HOSPITAL OF CAPITAL MEDICAL UNIVERSITY, priority 2007, published 2010)
